# Reference: patent US6737383B1, “Herbicidal oxadiazolidines” (priority 1999, dated 2004)
# Tests used:
# [1] = test system: rice; test: Test B flood test rice; type: in vivo, Oryza sativa
# How it was run: (§1)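 Read-out is a visual response score from 0 (no effect) to 10 (complete control), assigned by comparison with untreated controls. Treatment was applied at the 2-leaf stage, and plants stayed in the greenhouse for twelve to sixteen days before scoring.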
# [2] = test system: sugar beet; test: Test B pre/postemergence sugar beet; type: in vivo, Beta vulgaris; settings: for Plant response rating, Sugarbeets: Postemergence
# How it was run: (§2)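 Response is a visual 0-to-10 score relative to untreated plants, where 0 means no effect and 10 means complete control, taken twelve to sixteen days after application. Treatments went onto soil at planting and onto foliage of 1- to 4-leaf plants, using a surfactant-containing non-phytotoxic solvent.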
# [3] = test system: cocklebur; test: Test B pre/postemergence cocklebur; type: in vivo, Xanthium strumarium
# How it was run: as §2
# [4] = test system: bamyardgrass; test: Test B flood test barnyardgrass; type: in vivo, Echinochloa crus-galli
# How it was run: as §1
# [5] = test system: velvetleaf; test: Test B pre/postemergence velvetleaf; type: in vivo, Abutilon theophrasti; settings: for Plant response rating, Velvetleaf: Postemergence
# How it was run: as §2
# [6] = test system: giant foxtail; test: Test B pre/postemergence giant foxtail; type: in vivo, Setaria faberii
# How it was run: as §2
# [7] = test system: crabgrass; test: Test B pre/postemergence crabgrass; type: in vivo, Digitaria sanguinalis
# How it was run: as §2
# [8] = test system: soybean; test: Test B pre/postemergence soybean; type: in vivo, Glycine max; settings: for Plant response rating, Soybean: Postemergence
# How it was run: as §2
# [9] = test system: pigweed; test: Test B pre/postemergence pigweed; type: in vivo, Amaranthus retroflexus; settings: for Plant response rating, Redroot pigweed: Postemergence
# How it was run: as §2
# [10] = test system: duck salad; test: Test B flood test duck salad; type: in vivo, Heteranthera limosa
# How it was run: as §1
# [11] = test system: purple nutsedge; test: Test B pre/postemergence purple nutsedge; type: in vivo, Cyperus rotundus
# How it was run: as §2
# [12] = test system: blackgrass; test: Test B pre/postemergence blackgrass; type: in vivo, Alopecurus myosuroides
# How it was run: as §2
# [13] = test system: rape; test: Test B pre/postemergence rape; type: in vivo, Brassica napus
# How it was run: as §2
# [14] = test system: bedstraw; test: Test B pre/postemergence bedstraw; type: in vivo, Galium aparine
# How it was run: as §2
# [15] = test system: morningglory; test: Test B pre/postemergence morningglory; type: in vivo, Ipomoea hederacea
# How it was run: as §2
# [16] = test system: wheat; test: Test B pre/postemergence wheat; type: in vivo, Triticum aestivum; settings: for Plant response rating, Wheat: Postemergence
# How it was run: as §2
# [17] = test system: corn; test: Test B pre/postemergence corn; type: in vivo, Zea mays
# How it was run: as §2
# [18] = test system: surinam grass; test: Test B pre/postemergence surinam grass; type: in vivo, Brachiaria decumbens
# How it was run: as §2
# [19] = test system: wild oat; test: Test B pre/postemergence wild oat; type: in vivo, Avena fatua; settings: for Plant response rating, Wild oats: Postemergence
# How it was run: as §2
# [20] = test system: smallflower flatsedge; test: Test B flood test smallflower flatsedge; type: in vivo, Cyperus difformis
# How it was run: as §1
# [21] = Rate 62 g/ha, flood test species, Pre-emergence, visual evaluation after twelve to sixteen days
# [22] = Rate 125 g/ha, under heading Pre-emergence, flood test species, visual evaluation after twelve to sixteen days
# [23] = Rate 250 g/ha, Pre-emergence (flood test species), scale 0 to 10, 0 is no effect, 10 is complete control
# [24] = Rate 500 g/ha, Pre-emergence section of Table B, 0 to 10 scale (0 no effect, 10 complete control)
# [25] = Rate 500 g/ha, scale of 0 to 10 where 0 is no effect and 10 is complete control
# [26] = Preemergence, Rate 62 g/ha, scale 0 to 10 (0 no effect, 10 complete control)
# [27] = Preemergence, Rate 125 g/ha, scale 0 to 10, 0 is no effect, 10 is complete control
# [28] = Preemergence, Rate 500 g/ha, scale of 0 to 10 where 0 is no effect and 10 is complete control
# [29] = Rate 250 g/ha, scale of 0 to 10 where 0 is no effect and 10 is complete control
# [30] = Postemergence, Rate 62 g/ha, scale of 0 to 10, 0 is no effect, 10 is complete control
# [31] = Postemergence, Rate 125 g/ha, scale 0 to 10, 0 is no effect, 10 is complete control
# [32] = Postemergence, Rate 500 g/ha, scale of 0 to 10 where 0 is no effect and 10 is complete control
# [33] = Rate 250 g/ha, Postemergence, scale of 0 to 10 where 0 is no effect and 10 is complete control
smiles,measurement,setting,value
CC(C)N(C(=O)n1oc(=O)n(C(C)C(=O)c2ccccc2)c1=O)c1ccccc1 (centres unmarked) [Compound 570],"Plant response rating, Rice (0 to 10 scale, 0 is no effect, 10 is complete control)",[1]; [21],0
same,"Rice plant response rating (0 to 10 scale, 0 is no effect, 10 is complete control)",[1]; [22],0
same,Rice plant response rating,[1]; [23],0
same,Rice plant response rating,[1]; [24],0
same,"Plant response rating, Sugarbeets",[2]; [25],0
same,Sugarbeets plant response rating,[2]; [26],0
same,Sugarbeets plant response rating,[2]; [27],0
same,Sugarbeets plant response rating (0 to 10 scale),"[2]; Preemergence, Rate 250 g/ha",0
same,Sugarbeets plant response rating,[2]; [28],2
same,"Plant response rating, Sugarbeets",[2]; [29],0
same,Cocklebur plant response rating,[3]; [30],0
same,Cocklebur plant response rating,[3]; [31],0
same,"Plant response rating, Cocklebur",[3]; [32],0
same,Cocklebur plant response rating,[3]; [26],0
same,Cocklebur plant response rating,[3]; [27],0
same,Cocklebur plant response rating (0 to 10 scale),"[3]; Preemergence, Rate 250 g/ha",0
same,Cocklebur plant response rating,[3]; [28],0
same,"Plant response rating, Cocklebur",[3]; [33],0
same,"Plant response rating, Barnyardgrass (0 to 10 scale, 0 is no effect, 10 is complete control)",[4]; [21],0
same,"Barnyardgrass plant response rating (0 to 10 scale, 0 is no effect, 10 is complete control)",[4]; [22],0
same,Barnyardgrass plant response rating,[4]; [23],0
same,Barnyardgrass plant response rating,[4]; [24],0
same,"Plant response rating, Velvetleaf",[5]; [25],0
same,Velvetleaf plant response rating,[5]; [26],0
same,Velvetleaf plant response rating,[5]; [27],0
same,Velvetleaf plant response rating (0 to 10 scale),"[5]; Preemergence, Rate 250 g/ha",0
same,Velvetleaf plant response rating,[5]; [28],0
same,"Plant response rating, Velvetleaf",[5]; [29],0
same,Giant foxtail plant response rating,[6]; [30],0
same,Giant foxtail plant response rating,[6]; [31],0
same,"Plant response rating, Giant foxtail",[6]; [32],0
same,Giant foxtail plant response rating,[6]; [26],0
same,Giant foxtail plant response rating,[6]; [27],0
same,Giant foxtail plant response rating (0 to 10 scale),"[6]; Preemergence, Rate 250 g/ha",9
same,Giant foxtail plant response rating,[6]; [28],9
same,"Plant response rating, Giant foxtail",[6]; [33],0
same,Crabgrass plant response rating,[7]; [30],0
same,Crabgrass plant response rating,[7]; [31],0
same,"Plant response rating, Crabgrass",[7]; [32],0
same,Crabgrass plant response rating,[7]; [26],9
same,Crabgrass plant response rating,[7]; [27],9
same,Crabgrass plant response rating (0 to 10 scale),"[7]; Preemergence, Rate 250 g/ha",9
same,Crabgrass plant response rating,[7]; [28],10
same,"Plant response rating, Crabgrass",[7]; [33],0
same,"Plant response rating, Soybean",[8]; [25],3
same,Soybean plant response rating,[8]; [26],0
same,Soybean plant response rating,[8]; [27],0
same,Soybean plant response rating (0 to 10 scale),"[8]; Preemergence, Rate 250 g/ha",0
same,Soybean plant response rating,[8]; [28],0
same,"Plant response rating, Soybean",[8]; [29],3
same,"Plant response rating, Redroot pigweed",[9]; [25],0
same,Redroot pigweed plant response rating,[9]; [26],0
same,Redroot pigweed plant response rating,[9]; [27],0
same,Redroot pigweed plant response rating (0 to 10 scale),"[9]; Preemergence, Rate 250 g/ha",0
same,Redroot pigweed plant response rating,[9]; [28],8
same,"Plant response rating, Redroot pigweed",[9]; [29],0
same,"Plant response rating, Ducksalad (0 to 10 scale, 0 is no effect, 10 is complete control)",[10]; [21],0
same,"Ducksalad plant response rating (0 to 10 scale, 0 is no effect, 10 is complete control)",[10]; [22],0
same,Ducksalad plant response rating,[10]; [23],0
same,Ducksalad plant response rating,[10]; [24],0
same,Nutsedge plant response rating,[11]; [30],0
same,Nutsedge plant response rating,[11]; [31],0
same,"Plant response rating, Nutsedge",[11]; [32],0
same,Nutsedge plant response rating,[11]; [26],0
same,Nutsedge plant response rating,[11]; [27],0
same,Nutsedge plant response rating,[11]; [28],0
same,"Plant response rating, Nutsedge",[11]; [33],0
same,Blackgrass plant response rating,[12]; [30],0
same,Blackgrass plant response rating,[12]; [31],0
same,"Plant response rating, Blackgrass",[12]; [32],0
same,Blackgrass plant response rating,[12]; [26],0
same,Blackgrass plant response rating,[12]; [27],0
same,Blackgrass plant response rating (0 to 10 scale),"[12]; Preemergence, Rate 250 g/ha",0
same,Blackgrass plant response rating,[12]; [28],0
same,"Plant response rating, Blackgrass",[12]; [33],0
same,Rape plant response rating,[13]; [30],0
same,Rape plant response rating,[13]; [31],0
same,"Plant response rating, Rape",[13]; [32],0
same,Rape plant response rating,[13]; [26],0
same,Rape plant response rating,[13]; [27],0
same,Rape plant response rating (0 to 10 scale),"[13]; Preemergence, Rate 250 g/ha",0
same,Rape plant response rating,[13]; [28],0
same,"Plant response rating, Rape",[13]; [33],0
same,Bedstraw plant response rating,[14]; [30],0
same,Bedstraw plant response rating,[14]; [26],0
same,Bedstraw plant response rating,[14]; [27],0
same,Bedstraw plant response rating (0 to 10 scale),"[14]; Preemergence, Rate 250 g/ha",0
same,Bedstraw plant response rating,[14]; [28],0
same,Morningglory plant response rating,[15]; [30],4
same,Morningglory plant response rating,[15]; [31],10
same,"Plant response rating, Morningglory",[15]; [32],10
same,Morningglory plant response rating,[15]; [26],0
same,Morningglory plant response rating,[15]; [27],0
same,Morningglory plant response rating (0 to 10 scale),"[15]; Preemergence, Rate 250 g/ha",0
same,Morningglory plant response rating,[15]; [28],0
same,"Plant response rating, Morningglory",[15]; [33],10
same,"Plant response rating, Wheat",[16]; [25],0
same,Wheat plant response rating,[16]; [26],0
same,Wheat plant response rating,[16]; [27],0
same,Wheat plant response rating (0 to 10 scale),"[16]; Preemergence, Rate 250 g/ha",0
same,Wheat plant response rating,[16]; [28],0
same,"Plant response rating, Wheat",[16]; [29],0
same,Corn plant response rating,[17]; [30],0
same,Corn plant response rating,[17]; [31],0
same,"Plant response rating, Corn",[17]; [32],0
same,Corn plant response rating,[17]; [26],0
same,Corn plant response rating,[17]; [27],0
same,Corn plant response rating (0 to 10 scale),"[17]; Preemergence, Rate 250 g/ha",0
same,Corn plant response rating,[17]; [28],0
same,"Plant response rating, Corn",[17]; [33],0
same,B. signalgrass plant response rating,[18]; [30],0
same,B. signalgrass plant response rating,[18]; [31],0
same,"Plant response rating, B. signalgrass",[18]; [32],0
same,B. signalgrass plant response rating,[18]; [26],0
same,B. signalgrass plant response rating,[18]; [27],0
same,"B. signalgrass plant response rating (0 to 10 scale, 0 is no effect, 10 is complete control)","[18]; Preemergence, Rate 250 g/ha",0
same,B. signalgrass plant response rating,[18]; [28],0
same,"Plant response rating, B. signalgrass",[18]; [33],0
same,"Plant response rating, Wild oats",[19]; [25],0
same,Wild oats plant response rating,[19]; [26],0
same,Wild oats plant response rating,[19]; [27],0
same,Wild oats plant response rating (0 to 10 scale),"[19]; Preemergence, Rate 250 g/ha",0
same,Wild oats plant response rating,[19]; [28],0
same,"Plant response rating, Wild oats",[19]; [29],0
same,"Plant response rating, S. Flatsedge (0 to 10 scale, 0 is no effect, 10 is complete control)",[20]; [21],0
same,"S. Flatsedge plant response rating (0 to 10 scale, 0 is no effect, 10 is complete control)",[20]; [22],0
same,S. Flatsedge plant response rating,[20]; [23],0
same,S. Flatsedge plant response rating,[20]; [24],0
